Laboratory results published in ChEMBL document CHEMBL4420075, “Seriniquinones, melanoma-specific anticancer agents” (2016).
pIC50: −log10 of the molar value.

Key:
PC-3 = assay: Growth inhibition of human PC3 cells assessed as cell growth incubated for 48 hrs by sulforhodamine B assay; assay type: functional; design: concentration or dose not given beside the values
SF-268 = assay: Growth inhibition of human SF268 cells assessed as cell growth incubated for 48 hrs by sulforhodamine B assay; assay type: functional; design: concentration or dose not given beside the values
NCI-H460 = assay: Growth inhibition of human NCI-H460 cells assessed as cell growth incubated for 48 hrs by sulforhodamine B assay; assay type: functional; design: concentration or dose not given beside the values
MOLT-4 = assay: Growth inhibition of human MOLT4 cells assessed as cell growth incubated for 48 hrs by sulforhodamine B assay; assay type: functional; design: concentration or dose not given beside the values
MCF7 = assay: Growth inhibition of human MCF7 cells assessed as cell growth incubated for 48 hrs by sulforhodamine B assay; assay type: functional; design: concentration or dose not given beside the values
M14 = assay: Growth inhibition of human M14 cells assessed as cell growth incubated for 48 hrs by sulforhodamine B assay; assay type: functional; design: concentration or dose not given beside the values
ACHN = assay: Growth inhibition of human ACHN cells assessed as cell growth incubated for 48 hrs by sulforhodamine B assay; assay type: functional; design: scale not given: the % may be the effect or the level left
HL-60(TB) = assay: Growth inhibition of human HL-60(TB) cells assessed as cell growth incubated for 48 hrs by sulforhodamine B assay; assay type: functional; design: concentration or dose not given beside the values
KM12 = assay: Growth inhibition of human KM12 cells assessed as cell growth incubated for 48 hrs by sulforhodamine B assay; assay type: functional; design: concentration or dose not given beside the values
OVCAR-3 = assay: Growth inhibition of human OVCAR3 cells assessed as cell growth incubated for 48 hrs by sulforhodamine B assay; assay type: functional; design: concentration or dose not given beside the values
UACC-62 = assay: Growth inhibition of human UACC62 cells assessed as cell growth incubated for 48 hrs by sulforhodamine B assay; assay type: functional; design: concentration or dose not given beside the values
HCT-116 [1] = assay: Growth inhibition of human HCT116 cells assessed as cell growth incubated for 48 hrs by sulforhodamine B assay; assay type: functional; design: concentration or dose not given beside the values
UO-31 = assay: Growth inhibition of human UO31 cells assessed as cell growth incubated for 48 hrs by sulforhodamine B assay; assay type: functional; design: concentration or dose not given beside the values
SN12C = assay: Growth inhibition of human SN12C cells assessed as cell growth incubated for 48 hrs by sulforhodamine B assay; assay type: functional; design: concentration or dose not given beside the values
SF-539 = assay: Growth inhibition of human SF539 cells assessed as cell growth incubated for 48 hrs by sulforhodamine B assay; assay type: functional; design: scale not given: the % may be the effect or the level left
HT-29 = assay: Growth inhibition of human HT-29 cells assessed as cell growth incubated for 48 hrs by sulforhodamine B assay; assay type: functional; design: concentration or dose not given beside the values
Hs-578T = assay: Growth inhibition of human Hs 578T cells assessed as cell growth incubated for 48 hrs by sulforhodamine B assay; assay type: functional; design: concentration or dose not given beside the values
OVCAR-5 = assay: Growth inhibition of human OVCAR5 cells assessed as cell growth incubated for 48 hrs by sulforhodamine B assay; assay type: functional; design: scale not given: the % may be the effect or the level left
COLO 205 = assay: Growth inhibition of human COLO205 cells assessed as cell growth incubated for 48 hrs by sulforhodamine B assay; assay type: functional; design: concentration or dose not given beside the values
U-251 = assay: Growth inhibition of human U251 cells assessed as cell growth incubated for 48 hrs by sulforhodamine B assay; assay type: functional; design: concentration or dose not given beside the values
NCI/ADR-RES = assay: Growth inhibition of human NCI/ADR-RES cells assessed as cell growth incubated for 48 hrs by sulforhodamine B assay; assay type: functional; design: concentration or dose not given beside the values
SK-OV-3 = assay: Growth inhibition of human SKOV3 cells assessed as cell growth incubated for 48 hrs by sulforhodamine B assay; assay type: functional; design: concentration or dose not given beside the values
HCC 2998 = assay: Growth inhibition of human HCC2998 cells assessed as cell growth incubated for 48 hrs by sulforhodamine B assay; assay type: functional; design: concentration or dose not given beside the values
SR = assay: Growth inhibition of human SR cells assessed as cell growth incubated for 48 hrs by sulforhodamine B assay; assay type: functional; design: concentration or dose not given beside the values
SK-MEL-28 = assay: Growth inhibition of human SK-MEL-28 cells assessed as cell growth incubated for 48 hrs by sulforhodamine B assay; assay type: functional; design: concentration or dose not given beside the values
UACC-257 = assay: Growth inhibition of human UACC257 cells assessed as cell growth incubated for 48 hrs by sulforhodamine B assay; assay type: functional; design: concentration or dose not given beside the values
HOP-92 = assay: Growth inhibition of human HOP92 cells assessed as cell growth incubated for 48 hrs by sulforhodamine B assay; assay type: functional; design: concentration or dose not given beside the values
MDA-MB-435 = assay: Growth inhibition of human MDA-MB-435 cells assessed as cell growth incubated for 48 hrs by sulforhodamine B assay; assay type: functional; design: concentration or dose not given beside the values
MDA-MB-468 = assay: Growth inhibition of human MDA-MB-468 cells assessed as cell growth incubated for 48 hrs by sulforhodamine B assay; assay type: functional; design: concentration or dose not given beside the values
T47D = assay: Growth inhibition of human T47D cells assessed as cell growth incubated for 48 hrs by sulforhodamine B assay; assay type: functional; design: concentration or dose not given beside the values
LOX IMVI = assay: Growth inhibition of human LOXIMVI cells assessed as cell growth incubated for 48 hrs by sulforhodamine B assay; assay type: functional; design: concentration or dose not given beside the values
A498 = assay: Growth inhibition of human A498 cells assessed as cell growth incubated for 48 hrs by sulforhodamine B assay; assay type: functional; design: concentration or dose not given beside the values
OVCAR-8 = assay: Growth inhibition of human OVCAR8 cells assessed as cell growth incubated for 48 hrs by sulforhodamine B assay; assay type: functional; design: concentration or dose not given beside the values
SW-620 = assay: Growth inhibition of human SW620 cells assessed as cell growth incubated for 48 hrs by sulforhodamine B assay; assay type: functional; design: concentration or dose not given beside the values
786-0 = assay: Growth inhibition of human 786-0 cells assessed as cell growth incubated for 48 hrs by sulforhodamine B assay; assay type: functional; design: concentration or dose not given beside the values
NCI-H226 = assay: Growth inhibition of human NCI-H226 cells assessed as cell growth incubated for 48 hrs by sulforhodamine B assay; assay type: functional; design: concentration or dose not given beside the values
HCT-15 = assay: Growth inhibition of human HCT15 cells assessed as cell growth incubated for 48 hrs by sulforhodamine B assay; assay type: functional; design: scale not given: the % may be the effect or the level left
RPMI-8226 = assay: Growth inhibition of human RPMI8226 cells assessed as cell growth incubated for 48 hrs by sulforhodamine B assay; assay type: functional; design: concentration or dose not given beside the values
A549 = assay: Growth inhibition of human A549/ATCC cells assessed as cell growth incubated for 48 hrs by sulforhodamine B assay; assay type: functional; design: concentration or dose not given beside the values
SNB-75 = assay: Growth inhibition of human SNB75 cells assessed as cell growth incubated for 48 hrs by sulforhodamine B assay; assay type: functional; design: concentration or dose not given beside the values
OVCAR-4 = assay: Growth inhibition of human OVCAR4 cells assessed as cell growth incubated for 48 hrs by sulforhodamine B assay; assay type: functional; design: concentration or dose not given beside the values
CCRF-CEM = assay: Growth inhibition of human CCRF-CEM cells assessed as cell growth incubated for 48 hrs by sulforhodamine B assay; assay type: functional; design: concentration or dose not given beside the values
NCI-H522 = assay: Growth inhibition of human NCI-H522 cells assessed as cell growth incubated for 48 hrs by sulforhodamine B assay; assay type: functional; design: concentration or dose not given beside the values
SK-MEL-2 = assay: Growth inhibition of human SK-MEL-2 cells assessed as cell growth incubated for 48 hrs by sulforhodamine B assay; assay type: functional; design: concentration or dose not given beside the values
SK-MEL-5 = assay: Growth inhibition of human SK-MEL-5 cells assessed as cell growth incubated for 48 hrs by sulforhodamine B assay; assay type: functional; design: concentration or dose not given beside the values
TK-10 = assay: Growth inhibition of human TK10 cells assessed as cell growth incubated for 48 hrs by sulforhodamine B assay; assay type: functional; design: concentration or dose not given beside the values
DU-145 = assay: Growth inhibition of human DU145 cells assessed as cell growth incubated for 48 hrs by sulforhodamine B assay; assay type: functional; design: concentration or dose not given beside the values
CAKI-1 = assay: Growth inhibition of human Caki1 cells assessed as cell growth incubated for 48 hrs by sulforhodamine B assay; assay type: functional; design: concentration or dose not given beside the values
BT-549 = assay: Growth inhibition of human BT549 cells assessed as cell growth incubated for 48 hrs by sulforhodamine B assay; assay type: functional; design: concentration or dose not given beside the values
NCI-H322M = assay: Growth inhibition of human NCI-H322M cells assessed as cell growth incubated for 48 hrs by sulforhodamine B assay; assay type: functional; design: scale not given: the % may be the effect or the level left
Malme-3M = assay: Growth inhibition of human MALME-3M cells assessed as cell growth incubated for 48 hrs by sulforhodamine B assay; assay type: functional; design: scale not given: the % may be the effect or the level left
SNB-19 = assay: Growth inhibition of human SNB19 cells assessed as cell growth incubated for 48 hrs by sulforhodamine B assay; assay type: functional; design: concentration or dose not given beside the values
K562 = assay: Growth inhibition of human K562 cells assessed as cell growth incubated for 48 hrs by sulforhodamine B assay; assay type: functional; design: concentration or dose not given beside the values
HOP-62 = assay: Growth inhibition of human HOP62 cells assessed as cell growth incubated for 48 hrs by sulforhodamine B assay; assay type: functional; design: concentration or dose not given beside the values
RXF 393 = assay: Growth inhibition of human RXF393 cells assessed as cell growth incubated for 48 hrs by sulforhodamine B assay; assay type: functional; design: concentration or dose not given beside the values
NCI-H23 = assay: Growth inhibition of human NCI-H23 cells assessed as cell growth incubated for 48 hrs by sulforhodamine B assay; assay type: functional; design: concentration or dose not given beside the values
SF-295 = assay: Growth inhibition of human SF295 cells assessed as cell growth incubated for 48 hrs by sulforhodamine B assay; assay type: functional; design: concentration or dose not given beside the values
MDA-MB-231 = assay: Growth inhibition of human MDA-MB-231 cells assessed as cell growth incubated for 48 hrs by sulforhodamine B assay; assay type: functional; design: concentration or dose not given beside the values
HCT-116 [2] = assay: Cytotoxicity in human HCT116 cells by MTT assay; assay type: functional, cell-based

CC(C)(O)C(O)CCc1ccc2c(=O)c3sc4c(=O)c5ccccc5c(=O)c4c3c(=O)c2c1 (centres undefined)
Activity (PC-3): -79.46% | Activity (SF-268): -57.54% | Activity (NCI-H460): -52.32% | Activity (MOLT-4): -36.2% | Activity (MCF7): -58.78% | Activity (M14): -93.82% | Activity (ACHN): -96.22% | Activity (HL-60(TB)): -46.78% | Activity (KM12): -76.76% | Activity (OVCAR-3): -68.52% | Activity (UACC-62): -88.01% | Activity (HCT-116 [1]): -80.84% | Activity (UO-31): -96.98% | Activity (SN12C): -69% | Activity (SF-539): -99.46% | Activity (HT-29): -46.19% | Activity (Hs-578T): 1.09% | Activity (OVCAR-5): -85.63% | Activity (COLO 205): -91.79% | Activity (U-251): -92.83% | Activity (NCI/ADR-RES): -15.35% | Activity (SK-OV-3): -97.49% | Activity (HCC 2998): -90.76% | Activity (SR): -25% | Activity (SK-MEL-28): -96.8% | Activity (UACC-257): -92.08% | Activity (HOP-92): -32.93% | Activity (MDA-MB-435): -93.07% | Activity (MDA-MB-468): -83.65% | Activity (T47D): -51.1% | Activity (LOX IMVI): -82.6% | Activity (A498): -87.3% | Activity (OVCAR-8): -38.88% | Activity (SW-620): -60.32% | Activity (786-0): -95.07% | Activity (NCI-H226): -49.62% | Activity (HCT-15): -61.54% | Activity (RPMI-8226): -39.84% | Activity (A549): -55.33% | Activity (SNB-75): -95.74% | Activity (OVCAR-4): -71.07% | Activity (CCRF-CEM): -29.57% | Activity (NCI-H522): -72.26% | Activity (SK-MEL-2): -72.32% | Activity (SK-MEL-5): -98.07% | Activity (TK-10): -89.49% | Activity (DU-145): -94.41% | Activity (CAKI-1): -78.75% | Activity (BT-549): -96.67% | Activity (NCI-H322M): -97.48% | Activity (Malme-3M): -93.22% | Activity (SNB-19): -98.59% | Activity (K562): -59.88% | Activity (HOP-62): -90.94% | Activity (RXF 393): -77.25% | Activity (NCI-H23): -50.82% | Activity (SF-295): -92.59% | Activity (MDA-MB-231): -15.99%

O=c1c2ccccc2c(=O)c2c1sc1c(=O)c3cc(Cl)ccc3c(=O)c12
pIC50 (HCT-116 [2]): 6.82
